Measurements as given in ChEMBL document CHEMBL4312007, “First synthesis of merged hybrids phosphorylated azirino[2,1-b]benzo[e][1,3]oxazine derivatives as anticancer agents” (Eur J Med Chem, 2020).

Assays:
A549 = assay: Antiproliferative activity against human A549 cells assessed as inhibition of cell growth incubated for 48 hrs by CCK8 assay; type: functional, cell-based; details: A549, 48 h
HEK293 = assay: Antiproliferative activity against HEK293 cells assessed as inhibition of cell growth incubated for 48 hrs by CCK8 assay; type: functional, cell-based; details: Homo sapiens, HEK293, 48 h
MRC5 = assay: Cytotoxicity against human MRC5 cells assessed as reduction in cell growth incubated for 48 hrs by CCK8 assay; type: cell-based; details: MRC5, 48 h

SMILES	IC50 (A549) [µM]	IC50 (HEK293) [µM]	IC50 (MRC5) [µM]
COc1cccc2c1O[C@@]1(C)[C@H](P(=O)(c3ccccc3)c3ccccc3)N1[C@H]2O (relative stereo)	1.3	> 50	> 50
C[C@@]12Oc3ccc(F)cc3[C@H](O)N1[C@H]2P(=O)(c1ccccc1)c1ccccc1 (relative stereo)	19.6	> 50	> 50
CC[C@@]12Oc3ccc(C)cc3[C@H](O)N1[C@H]2P(=O)(c1ccccc1)c1ccccc1 (relative stereo)	12.9	> 50	> 50
Cc1ccc2c(c1)[C@H](O)N1[C@@H](P(=O)(c3ccccc3)c3ccccc3)[C@]1(C)O2 (relative stereo)	3.2	> 50	> 50
CC(C)OP(=O)(OC(C)C)[C@@H]1N2[C@@H](O)c3ccccc3O[C@@]12C (relative stereo)	3	> 50	> 50
CC[C@@]12Oc3c(OC)cccc3[C@H](O)N1[C@H]2P(=O)(c1ccccc1)c1ccccc1 (relative stereo)	20.7	> 50	> 50
CC[C@@]12Oc3ccccc3[C@](C)(O)N1[C@H]2P(=O)(c1ccccc1)c1ccccc1 (relative stereo)	3.2	> 50	> 50
C[C@]1(O)c2ccccc2O[C@@]2(C)[C@H](P(=O)(c3ccccc3)c3ccccc3)N12 (relative stereo)	21.1	> 50	> 50
CC(C)OP(=O)(OC(C)C)[C@@H]1N2[C@@](C)(O)c3ccccc3O[C@@]12C (relative stereo)	10.3	> 50	> 50
CCOP(=O)(OCC)[C@@H]1N2[C@@H](O)c3ccccc3O[C@@]12C (relative stereo)	15.8	–	> 50
C[C@@]12Oc3ccccc3[C@H](O)N1[C@H]2P(=O)(c1ccccc1)c1ccccc1 (relative stereo)	2.7	> 50	> 50
CC[C@@]12Oc3ccccc3[C@H](O)N1[C@H]2P(=O)(c1ccccc1)c1ccccc1 (relative stereo)	10.4	> 50	> 50
COc1cccc2c1C(=O)c1c(O)c3c(c(O)c1C2=O)C[C@@](O)(C(=O)CO)C[C@@H]3O[C@H]1C[C@H](N)[C@H](O)[C@H](C)O1 [DOXORUBICIN]	–	5.68	> 50
